Assay results published in patent US20050148534A1, “Small molecule compositions and methods for increasing drug efficiency using compositions thereof” (priority 2003, published 2005).

What was measured:
[1] = target: deoxycytidine kinase (dCK) (Homo sapiens, UniProt P27707); conditions: cited from earlier work; for dCK: substrate activity, literature (Johansson et al.; Eriksson et al.; Wang et al.), source per Table 3
TK2 = target: T1, TK2 (Homo sapiens, UniProt O00142); parameters: unit not given here; conditions: substrate activity; literature (Johansson et al.; Eriksson et al.; Wang et al.), source per Table 3; cited from earlier work
T1 sequence (O00142 34-265): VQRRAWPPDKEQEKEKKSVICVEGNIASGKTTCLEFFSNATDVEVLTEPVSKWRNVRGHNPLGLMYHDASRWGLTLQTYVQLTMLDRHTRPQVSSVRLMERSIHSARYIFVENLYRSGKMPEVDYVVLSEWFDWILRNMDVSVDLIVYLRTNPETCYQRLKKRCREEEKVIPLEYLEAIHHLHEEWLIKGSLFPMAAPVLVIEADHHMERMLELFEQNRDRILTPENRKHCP

tubulin = assay: Fluorescence-based microtubule polymerization assay (MPA); type: biochemical; conditions: mean percentage of paclitaxel or vinblastine activity; 0.75-10 micromolar
From the text: Drug-linker constructs may further be screened using functional assays predictive of biological activity. […] Tubulin assembly or inhibition thereof may be monitored by fluorescence using the CytoDYNAMIX Screen™ 10 kit available from Cytoskeleton (1830 S. Acoma St., Denver, Colo.). […] Emission is monitored at 405 nm with excitation at 360 nm. […] Tubulin assembly or inhibition may also be monitored by light scattering which is approximated by the apparent absorption at 350 nm. For paclitaxel drug conjugates BSA is employed to prevent aggregation and glycerol, which is a tubulin polymerization enhancer, is omitted from the kit to increase the signal to noise ratio.
The assay kit (#BK011) was purchased from Cytoskeleton (Denver, Colo.). The assays were carried out according to the manufacturer's instructions, except that 1 mg/ml BSA (Sigma #A3059) was included in all assays. […] Parent drugs and conjugates were tested at 0.75, 1.5, 3 and 10 micromolar final concentration and results represent a comparison of conjugate and parent drug curves obtained from the linear range of the dose responses.

Sequence of deoxycytidine kinase (dCK) (P27707 whole entry, species assumed): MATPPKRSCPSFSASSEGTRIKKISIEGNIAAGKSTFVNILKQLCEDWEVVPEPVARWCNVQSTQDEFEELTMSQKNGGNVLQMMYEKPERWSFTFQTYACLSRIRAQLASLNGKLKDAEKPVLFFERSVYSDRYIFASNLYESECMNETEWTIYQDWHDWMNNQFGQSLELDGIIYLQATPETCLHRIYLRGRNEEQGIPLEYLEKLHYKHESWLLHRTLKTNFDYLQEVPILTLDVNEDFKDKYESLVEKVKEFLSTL

Compound | dCK [1] | TK2 (TK2) | other results
Nc1nc(=O)n([C@H]2C[C@H](O)[C@@H](CO)O2)cc1-c1ccccn1 [R2 = 2-pyridyl, X = C] | <1 | 7 | –
CC[C@]1(O)C[C@@H]2CN(CCc3c([nH]c4ccccc34)[C@@](C(=O)OC)(c3cc4c(cc3OC)N(C)[C@H]3[C@@](O)(C(=O)NCCCCCCNC(=O)OC(C)(C)C)[C@H](O)[C@]5(CC)C=CCN6CC[C@]43[C@@H]65)C2)C1 [VBL-3Am-ALK(6)-NH(B)] | – | – | Ave. MPA Act (tubulin): A (A<60)
CC[C@]1(O)C[C@@H]2CN(CCc3c([nH]c4ccccc34)[C@@](C(=O)OC)(c3cc4c(cc3OC)N(C)[C@H]3[C@@](O)(C(=O)NCCCCCCn5c(=O)c(C)cn([C@H]6C[C@H](O)[C@@H](COP(=O)(O)O)O6)c5=O)[C@H](O)[C@]5(CC)C=CCN6CC[C@]43[C@@H]65)C2)C1 [VBL-3Am-ALK(6)-N3-PhTHY] | – | – | Ave. MPA Act (tubulin): C (C>100)
Nc1ccn([C@@H]2C[C@@H](O)[C@H](CO)O2)c(=O)n1 [β-L-dC] | – | 70 | –
CC(=O)O[C@H]1C(=O)[C@]2(C)[C@@H](OC(=O)NCCCCCCN)C[C@H]3OC[C@@]3(OC(C)=O)[C@H]2[C@H](OC(=O)c2ccccc2)[C@]2(O)C[C@H](OC(=O)[C@H](O)[C@@H](NC(=O)c3ccccc3)c3ccccc3)C(C)=C1C2(C)C [PXL-7Ca-ALK(6)-NH2] | – | – | Ave. MPA Act (tubulin): A (A<60)
Nc1nc(=O)n([C@H]2C[C@H](O)[C@@H](CO)O2)cc1F [R2 = F, X = C] | 20 | 90 | –
Nc1nc(=O)n([C@H]2C[C@H](O)[C@@H](CO)O2)cc1-c1ccncc1 [R2 = 4-pyridyl, X = C] | 5 | 2 | –
CC[C@]1(O)C[C@@H]2CN(CCc3c([nH]c4ccccc34)[C@@](C(=O)OC)(c3cc4c(cc3OC)N(C)[C@H]3[C@@](O)(C(=O)NCCCCCCCCN)[C@H](O)[C@]5(CC)C=CCN6CC[C@]43[C@@H]65)C2)C1 [VBL-3Am-ALK(8)-NH2] | – | – | Ave. MPA Act (tubulin): B (B=60-100)
CC(=O)O[C@H]1C(=O)[C@]2(C)[C@@H](OC(=O)CCCCCN)C[C@H]3OC[C@@]3(OC(C)=O)[C@H]2[C@H](OC(=O)c2ccccc2)[C@]2(O)C[C@H](OC(=O)[C@H](O)[C@@H](NC(=O)c3ccccc3)c3ccccc3)C(C)=C1C2(C)C [PXL-7Es-ALK(5)-NH2] | – | – | Ave. MPA Act (tubulin): A (A<60)
Nc1ccn([C@H]2CC[C@@H](CO)O2)c(=O)n1 [β-ddC(2′,3′-dideoxyC), 2′,3′-dideoxyC] | 7.1 | – | –
Nc1ccn([C@H]2C[C@H](F)[C@@H](CO)O2)c(=O)n1 [R4 = H, R5 = H, R3 = F] | 60 | <1 | –
O=c1[nH]c(=O)n([C@@H]2O[C@H](CO)[C@@H](O)[C@@H]2O)cc1C1CC1 [R2 = cyclopropyl, R5 = OH] | – | 15 | –
Cc1cn([C@@H]2O[C@H](CO)[C@@H](O)[C@@H]2O)c(=O)[nH]c1=O [R2 = CH3, R5 = OH (araT), araT] | – | 60 | –
CC[C@]1(O)C[C@@H]2CN(CCc3c([nH]c4ccccc34)[C@@](C(=O)OC)(c3cc4c(cc3OC)N(C)[C@H]3[C@@](O)(C(=O)NN)[C@H](O)[C@]5(CC)C=CCN6CC[C@]43[C@@H]65)C2)C1 [Desacetylvinblastine monohydrazine] | – | – | Ave. MPA Act (tubulin): C (C>100)
Nc1nc(=O)n([C@H]2C[C@H](O)[C@@H](CO)O2)cc1C1CC1 [R2 = cyclopropyl, X = C] | 20 | <1 | –
Cc1cn([C@H]2CC[C@@H](CO)O2)c(=O)[nH]c1=O [β-ddT(3′-deoxyThy), 3′-deoxyThy] | – | 3.2 | –
CC(=O)O[C@@]12CO[C@@H]1C[C@H](O)[C@@]1(C)C(=O)[C@H](OC(=O)CCCCCN)C3=C(C)[C@@H](OC(=O)[C@H](O)[C@@H](NC(=O)c4ccccc4)c4ccccc4)C[C@@](O)([C@@H](OC(=O)c4ccccc4)[C@H]21)C3(C)C [PXL-10Es-ALK(5)-NH2] | – | – | Ave. MPA Act (tubulin): B (B=60-100)
CC#Cc1cn([C@@H]2O[C@H](CO)[C@@H](O)[C@@H]2O)c(=O)[nH]c1=O | – | 30 | –
(±)-Cytallene | 20 | <1 | –
CC[C@]1(O)C[C@@H]2CN(CCc3c([nH]c4ccccc34)[C@@](C(=O)OC)(c3cc4c(cc3OC)N(C)[C@H]3[C@@](O)(C(=O)NCCCCCCN)[C@H](O)[C@]5(CC)C=CCN6CC[C@]43[C@@H]65)C2)C1 [VBL-3Am-ALK(6)-NH2] | – | – | Ave. MPA Act (tubulin): C (C>100)
C=CCOC(=O)O[C@@H](C(=O)O[C@H]1C[C@@]2(O)[C@@H](OC(=O)c3ccccc3)[C@@H]3[C@]4(OC(C)=O)CO[C@@H]4C[C@H](O)[C@@]3(C)C(=O)[C@H](OC(C)=O)C(=C1C)C2(C)C)[C@@H](NC(=O)c1ccccc1)c1ccccc1 [PXL-2′Alloc] | – | – | Ave. MPA Act (tubulin): A (A<60)
Nc1nc(=O)n([C@H]2C[C@H](O)[C@@H](CO)O2)cc1-c1cccnc1 [R2 = 3-pyridyl, X = C] | 4 | <1 | –
Nc1nc(=O)n([C@H]2C[C@H](O)[C@@H](CO)O2)cc1-c1ccsc1 [R2 = 3-thienyl, X = C] | <1 | 30 | –

Compound | dCK [1] | TK2 (TK2) | other results
Nc1nc(Cl)nc2c1ncn2C1CC(CO)C(CO)O1 (centres unmarked) | 40 | – | –
Nc1ccn([C@@H]2O[C@H](CO)[C@@H](O)[C@H]2F)c(=O)n1 [R4 = F, R5 = H, R3 = OH] | 300 | 30 | –
Nc1ccn([C@@H]2C[C@H](O)[C@@H](CO)O2)c(=O)n1 [α-D-dC] | – | 1.8 | –
CC[C@]1(O)C[C@@H]2CN(CCc3c([nH]c4ccccc34)[C@@](C(=O)OC)(c3cc4c(cc3OC)N(C)[C@H]3[C@@](O)(C(=O)NCCCCCCCCCCCCNC(=O)OC(C)(C)C)[C@H](O)[C@]5(CC)C=CCN6CC[C@]43[C@@H]65)C2)C1 [VBL-3Am-ALK(12)-NH(B)] | – | – | Ave. MPA Act (tubulin): A (A<60)
Nc1ccn([C@H]2CC[C@@H](CO)O2)c(=O)n1 [R4 = H, R5 = H, R3 = H (ddCy, Zalcitabine)] | 30 | <1 | –
Cc1cn(C2CCC(CO)O2)c(=O)[nH]c1=O (stereo not drawn) [α-ddT] | – | 9.8 | –
CC(=O)O[C@@]12CO[C@@H]1C[C@H](O)[C@@]1(C)C(=O)[C@H](OC(=O)CCCCCCNC(=O)OCc3ccccc3)C3=C(C)[C@@H](OC(=O)[C@H](O)[C@@H](NC(=O)c4ccccc4)c4ccccc4)C[C@@](O)([C@@H](OC(=O)c4ccccc4)[C@H]21)C3(C)C [PXL-10Es-Alk(6)-NH(Z)] | – | – | Ave. MPA Act (tubulin): A (A<60)
Cc1cn([C@@H]2C[C@H](O)[C@@H](CO)O2)c(=O)[nH]c1=O [α-D-Thy] | – | 2.4 | –
Nc1nc(=O)n([C@H]2C[C@H](O)[C@@H](CO)O2)cc1-c1cccs1 [R2 = 2-thienyl, X = C] | 2 | 30 | –
Nc1ccn(C2CC(O)C(CO)O2)c(=O)n1 [α-L-dC] | – | 0.4 | –
CC[C@]1(O)C[C@@H]2CN(CCc3c([nH]c4ccccc34)[C@@](C(=O)OC)(c3cc4c(cc3OC)N(C)[C@H]3[C@@](O)(C(=O)OC)[C@H](O)[C@]5(CC)C=CCN6CC[C@]43[C@@H]65)C2)C1 [Desacetyl vinblastine] | – | – | Ave. MPA Act (tubulin): C (C>100)
Nc1ccn([C@@H]2O[C@H](CO)[C@@H](O)[C@H]2O)c(=O)n1 [R4 = OH, R5 = H, R3 = OH] | – | <1 | –
Nc1nc(=O)n([C@H]2C[C@H](O)[C@@H](CO)O2)cc1-c1ccco1 [R2 = 2-furyl, X = C] | 3 | 10 | –
Nc1nc(=O)n([C@H]2C[C@H](O)[C@@H](CO)O2)cc1-c1ccoc1 [R2 = 3-furyl, X = C] | <1 | 50 | –
CC(=O)O[C@H]1C(=O)[C@]2(C)[C@@H](OC(=O)NCCCCCCn3c(=O)c(C)cn([C@H]4C[C@H](O)[C@@H](COP(=O)(O)O)O4)c3=O)C[C@H]3OC[C@@]3(OC(C)=O)[C@H]2[C@H](OC(=O)c2ccccc2)[C@]2(O)C[C@H](OC(=O)[C@H](O)[C@@H](NC(=O)c3ccccc3)c3ccccc3)C(C)=C1C2(C)C [PXL-7Ca-ALK(6)-N3-PhTHY] | – | – | Ave. MPA Act (tubulin): B (B=60-100)
Cc1cn([C@H]2C[C@@H](O)[C@H](CO)O2)c(=O)[nH]c1=O [α-L-Thy] | – | 1.5 | –
Nc1cn([C@@H]2O[C@H](CO)[C@@H](O)[C@H]2O)c(=O)[nH]c1=O [R2 = NH2, R4 = H, R3 = OH, 5-amino-uridine] | – | – | activity towards dCK [1]: 17%
Cc1cn([C@H]2C[C@H](O)[C@@H](CO)O2)c(=O)nc1N [R2 = CH3, X = C] | – | 40 | –
Nc1nc(=O)n([C@H]2C[C@H](O)[C@@H](CO)O2)cc1Br [R2 = Br, X = C] | 20 | 40 | –
O=c1[nH]c(=O)n([C@@H]2O[C@H](CO)[C@@H](O)[C@@H]2O)cc1-c1cccs1 [R2 = 2-thienyl, R5 = OH] | – | 6 | –
O=c1ccn([C@@H]2O[C@H](CO)[C@@H](O)[C@H]2O)c(=O)[nH]1 [R2 = H, R5 = OH (araU), araU] | – | 20 | –
Cc1cn([C@@H]2C[C@@H](O)[C@H](CO)O2)c(=O)[nH]c1=O [β-L-Thy] | 0.8 | 60 | –
C[C@H]1C=C[C@@H](CO)O1 | 4 | <1 | –
